PubChem BioAssay AID248 (DTP/NCI, 2004)
Where “and” joins values, the source holds several entries; their conditions need not be identical. Identical values can stand only once. Inconclusive results and toxic doses are left out. Cut-off read from the data, not from the text of the source: active = T/C of 150% or more; inactive = T/C below 125%.

System: L1210 leukemia ip in BDF1 mice, survival T/C
Experiment: NCI In Vivo Anticancer Drug Screen. Data for tumor model L1210 Leukemia (intraperitoneal) in B6D2F1 (BDF1) mice
Settings: endpoint: mean survival time, higher = longer survival
In short: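 Tumor was transplanted into mice, which were then dosed with test compound or vehicle alone. Survival was recorded for each group, and the treated figure was expressed relative to the control figure.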

[1] = dose: 100.0 mg/kg/injection, schedule: Q01DX001 (ip), vehicle: saline
[2] = dose: 100.0 mg/kg/injection, schedule: Q04DX003 (ip), vehicle: Klucel (hydroxypropylcellulose) (HPC)
[3] = dose: 200.0 mg/kg/injection, schedule: Q04DX003 (ip), vehicle: Klucel (hydroxypropylcellulose) (HPC)
[4] = dose: 400.0 mg/kg/injection, schedule: Q04DX003 (ip), vehicle: Klucel (hydroxypropylcellulose) (HPC)
[5] = dose: 100.0 mg/kg/injection, schedule: Q04DX003 (ip), vehicle: saline with Tween-80
[6] = dose: 200.0 mg/kg/injection, schedule: Q04DX003 (ip), vehicle: saline with Tween-80
[7] = dose: 400.0 mg/kg/injection, schedule: Q04DX003 (ip), vehicle: saline with Tween-80
[8] = dose: 100.0 mg/kg/injection, schedule: Q04DX003 (ip), vehicle: saline
[9] = dose: 200.0 mg/kg/injection, schedule: Q04DX003 (ip), vehicle: saline
[10] = dose: 100.0 mg/kg/injection, schedule: Q01DX009 (ip), vehicle: saline
[11] = dose: 400.0 mg/kg/injection, schedule: Q04DX003 (ip), vehicle: saline
[12] = dose: 100.0 mg/kg/injection, schedule: Q01DX009 (ip), vehicle: Klucel (hydroxypropylcellulose) (HPC)
[13] = dose: 200.0 mg/kg/injection, schedule: Q01DX009 (ip), vehicle: Klucel (hydroxypropylcellulose) (HPC)
[14] = dose: 400.0 mg/kg/injection, schedule: Q01DX009 (ip), vehicle: Klucel (hydroxypropylcellulose) (HPC)

Measured: T/C

O=[N+]([O-])c1ccc(N=Nc2c3ccccc3c(O)n2CO)c([N+](=O)[O-])c1
inactive: [1] 97 % of control | dose: 200.0 mg/kg/injection, schedule: Q01DX001 (ip), vehicle: saline 97 % of control | dose: 400.0 mg/kg/injection, schedule: Q01DX001 (ip), vehicle: saline 98 % of control

O=C(Nc1ccc(Cl)c(Cl)c1)OC1C=CS(=O)(=O)C1 (stereo not drawn)
inactive: [2] 104 % of control | [3] 104 % of control | [4] 96 % of control

O=C(c1ccc(F)cc1)c1ccc([N+](=O)[O-])cc1
inactive: [5] 97 % of control | [6] 97 % of control | [7] 98 % of control

CNc1nc(N)nc(Nc2ccc(I)cc2)c1N=O
inactive: dose: 100.0 mg/kg/injection, schedule: Q01DX001 (ip), vehicle: carboxymethylcellulose (CMC) 105 % of control | dose: 100.0 mg/kg/injection, schedule: Q01DX009 (ip), vehicle: acetone 107 % of control | dose: 100.0 mg/kg/injection, schedule: Q04DX003 (ip), vehicle: acetone 115 % of control | dose: 200.0 mg/kg/injection, schedule: Q01DX001 (ip), vehicle: carboxymethylcellulose (CMC) 110 % of control | dose: 200.0 mg/kg/injection, schedule: Q01DX009 (ip), vehicle: acetone 107 % of control | dose: 200.0 mg/kg/injection, schedule: Q04DX003 (ip), vehicle: acetone 105 % of control | dose: 400.0 mg/kg/injection, schedule: Q01DX001 (ip), vehicle: carboxymethylcellulose (CMC) 100 % of control | dose: 400.0 mg/kg/injection, schedule: Q01DX009 (ip), vehicle: acetone 98 % of control | dose: 400.0 mg/kg/injection, schedule: Q04DX003 (ip), vehicle: acetone 98 % of control

C/C=N/N(C)C=O
inactive: [8] 104 % of control | [9] 119 % of control

O=[N+]([O-])c1ccc(Cl)c(CNc2ncnc3c2ncn3C2CCCCO2)c1 (stereo not drawn)
inactive: [5] 102 % of control | [6] 92 % of control | [7] 102 % of control

CC(=O)c1ccc(NC(=O)N(CCCl)N=O)cc1
inactive: dose: 2.0 mg/kg/injection, schedule: Q01DX001 (ip), vehicle: carboxymethylcellulose (CMC) 122 % of control | dose: 300.0 mg/kg/injection, schedule: Q01DX001 (ip), vehicle: carboxymethylcellulose (CMC) 97 % of control
active: dose: 18.0 mg/kg/injection, schedule: Q01DX001 (ip), vehicle: carboxymethylcellulose (CMC) 190 % of control | dose: 25.0 mg/kg/injection, schedule: Q01DX001 (ip), vehicle: carboxymethylcellulose (CMC) 152 % of control | dose: 75.0 mg/kg/injection, schedule: Q01DX001 (ip), vehicle: carboxymethylcellulose (CMC) 191 % of control | dose: 150.0 mg/kg/injection, schedule: Q01DX001 (ip), vehicle: carboxymethylcellulose (CMC) 160 % of control

COc1ccc(C(C#N)CC(=O)c2ccc3c(c2)OCO3)cc1OC (stereo not drawn)
inactive: [10] 104 % of control | [8] 98 % of control | dose: 200.0 mg/kg/injection, schedule: Q01DX009 (ip), vehicle: saline 104 % of control | [9] 104 % of control | dose: 400.0 mg/kg/injection, schedule: Q01DX009 (ip), vehicle: saline 97 % of control | [11] 98 % of control

NC1CCC(CC2CC3CCC2C3)CC1 (stereo not drawn)
inactive: dose: 12.5 mg/kg/injection, schedule: Q01DX009 (ip), vehicle: saline 98 % of control | dose: 25.0 mg/kg/injection, schedule: Q01DX009 (ip), vehicle: saline 91 % of control | dose: 25.0 mg/kg/injection, schedule: Q04DX003 (ip), vehicle: saline 100 % of control | dose: 50.0 mg/kg/injection, schedule: Q01DX009 (ip), vehicle: saline 100 % of control | dose: 50.0 mg/kg/injection, schedule: Q04DX003 (ip), vehicle: saline 96 % of control | [10] 90 % of control | [8] 96 % of control

Nc1nnnn1CC(Br)CBr (stereo not drawn)
inactive: dose: 100.0 mg/kg/injection, schedule: Q04DX002 (ip), vehicle: saline 104 % of control | dose: 200.0 mg/kg/injection, schedule: Q04DX002 (ip), vehicle: saline 101 % of control | dose: 400.0 mg/kg/injection, schedule: Q04DX002 (ip), vehicle: saline 90 % of control

O=S1(=O)C(c2ccccc2)CC1c1ccccc1 (stereo not drawn)
inactive: dose: 75.0 mg/kg/injection, schedule: Q04DX003 (ip), vehicle: Klucel (hydroxypropylcellulose) (HPC) 107 % of control | dose: 150.0 mg/kg/injection, schedule: Q04DX003 (ip), vehicle: Klucel (hydroxypropylcellulose) (HPC) 104 % of control | dose: 300.0 mg/kg/injection, schedule: Q04DX003 (ip), vehicle: Klucel (hydroxypropylcellulose) (HPC) 96 % of control

COC(=O)c1c2ccccc2nc2c1c(C)c(C)c1ccccc12
inactive: [2] 96 % of control | [3] 110 % of control | [4] 101 % of control

CCN(CCCCO)CCc1c[nH]c2ccc(OC)cc12
inactive: dose: 4.68 mg/kg/injection, schedule: Q01DX009 (ip), vehicle: saline 98 % of control | dose: 9.37 mg/kg/injection, schedule: Q01DX009 (ip), vehicle: saline 106 % of control | dose: 18.75 mg/kg/injection, schedule: Q01DX009 (ip), vehicle: saline 96 % of control | dose: 18.75 mg/kg/injection, schedule: Q04DX003 (ip), vehicle: saline 112 % of control | dose: 37.5 mg/kg/injection, schedule: Q01DX009 (ip), vehicle: saline 104 % of control | dose: 37.5 mg/kg/injection, schedule: Q04DX003 (ip), vehicle: saline 101 % of control | dose: 75.0 mg/kg/injection, schedule: Q01DX009 (ip), vehicle: saline 95 % of control | dose: 75.0 mg/kg/injection, schedule: Q04DX003 (ip), vehicle: saline 106 % of control | dose: 150.0 mg/kg/injection, schedule: Q01DX009 (ip), vehicle: saline 109 % of control

Cc1ccc([N+](=O)[O-])cc1N=C=O
inactive: [12] 87 % of control | [2] 96 % of control | [13] 91 % of control | [3] 97 % of control | [14] 97 % of control | [4] 97 % of control

COCC1OC(n2cnc3c(N(C)C)ncnc32)C(OC)C1OC (stereo not drawn)
inactive: dose: 50.0 mg/kg/injection, schedule: Q01DX005 (ip), vehicle: saline 112 % of control | dose: 100.0 mg/kg/injection, schedule: Q01DX005 (ip), vehicle: saline 102 % of control | dose: 200.0 mg/kg/injection, schedule: Q01DX005 (ip), vehicle: saline 96 % of control

Cc1ccc(S(=O)(=O)NC(=O)NC2CCCCC2)cc1
inactive: [8] 88 % of control | [9] 93 % of control | [11] 104 % of control

C[n+]1csc(=S)[nH]1
inactive: [10] 98 % of control

C1CC2CCC[N]3C2C(C1)[O][Pb]31[O]C2CCCC3CCC[N]1C32 (stereo not drawn)
inactive: dose: 30.0 mg/kg/injection, schedule: Q01DX015 (ip), vehicle: carboxymethylcellulose (CMC) 91 % of control | dose: 60.0 mg/kg/injection, schedule: Q01DX015 (ip), vehicle: carboxymethylcellulose (CMC) 90 % of control | [12] 97 % of control | [2] 95 % of control | [13] 92 % of control | [3] 94 % of control | [4] 98 % of control

O=[N+]([O-])c1ccc(O)c(N=Cc2ccc(C=Nc3cc([N+](=O)[O-])ccc3O)cc2)c1
inactive: [12] 95 % of control and 86 % of control | [13] 97 % of control | [14] 103 % of control and 90 % of control

Oc1cc(Br)c(O)c(Br)c1
inactive: dose: 25.0 mg/kg/injection, schedule: Q04DX002 (ip), vehicle: Klucel (hydroxypropylcellulose) (HPC) 109 % of control | dose: 50.0 mg/kg/injection, schedule: Q04DX002 (ip), vehicle: Klucel (hydroxypropylcellulose) (HPC) 102 % of control | dose: 100.0 mg/kg/injection, schedule: Q04DX002 (ip), vehicle: Klucel (hydroxypropylcellulose) (HPC) 97 % of control | dose: 400.0 mg/kg/injection, schedule: Q04DX002 (ip), vehicle: Klucel (hydroxypropylcellulose) (HPC) 90 % of control

CC1(C)CCC(C)(C)c2c1ccc(O)c2Sc1c(O)ccc2c1C(C)(C)CCC2(C)C
inactive: [1] 87 % of control

CCOc1ccc(NC(=S)NC2CCCCC2)cc1
inactive: [12] 106 % of control | [13] 95 % of control | [14] 96 % of control

COc1cc(C=Nc2ccc(Cl)cc2)ccc1OC(=O)c1ccccc1
inactive: dose: 100.0 mg/kg/injection, schedule: Q04DX002 (ip), vehicle: saline with Tween-80 91 % of control | dose: 200.0 mg/kg/injection, schedule: Q04DX002 (ip), vehicle: saline with Tween-80 87 % of control
